Assay results published in US20130224115A1, “NON-RADIOACTIVE AGENTS FOR NEUROBLASTOMA IMAGING” (Baylor College of Medicine, priority 2010, published 2013).
“And” between values parts separate entries of the source, which are not always exact repeats. Identical values can stand only once. “Also recorded” adds a separate entry of the source.

Legend:
[1] = test system: human neuroblastoma xenograft; experiment: Whole body and dissected organ imaging in the neuroblastoma xenograft mouse model (late stage tumor, imaging window); assay type: in vivo, mice
Description: (§1) Tumor xenografts: Four- to six-week-old female nude mice (18-22 g) (Taconic, Hudson, N.Y.) were housed and fed with sterilized pellet chow and sterilized water. Animals were maintained in a pathogen-free mouse colony. Tumor cells near confluence were harvested by incubation with 0.05% trypsin-EDTA. Cells were pelleted by centrifugation at 130×g for 5 min and resuspended in sterile phosphate-buffered saline (PBS). Approximately 1 million cells were implanted subcutaneously into the hind leg region of the mice. A total of 15 mice was used in this study.
(§2) Animal imaging. Tumors were visualized by intraperitoneal injection of 3 mg of VivoGlo Luciferin (Promega, Madison Wis.) before the imaging session, and pseudo into cyan. Ten nanomoles of W765-BG and 3 nanomoles of the vascular agent RGD-Cy5.5 were injected i.v. into the tumor-bearing mice prior to the imaging study. The animals were imaged 1 to 9 days after the injection using the Kodak In-Vivo Multispectral System FX (Carestream Health Molecular Imaging, New Haven, Conn.). Vasculature images were recorded at wavelengths of ex/em 650/700 nm for RDG-Cy5.5 and pseudo colored into red. The W765-BG signal was recorded at wavelengths of ex/em 770/830 nm and pseudo colored into green. Tumor cells, vasculature, and W765-BG signals were precisely overlaid with anatomical X-ray images.
Late stage tumor, organ image and pathological analysis. Late stage tumor mass and organ imaging were performed after the injection of additional imaging agent (FIG. 5A-H). […] Gross necropsy confirmed the necrosis in the center of this tumor. H&E stain confirmed the identification of tumor (FIG. 5I), muscle (FIG. 5J), liver (FIG. 5K), kidney (FIG. 5L), and spleen (FIG. 5M) at pathological levels.

[2] = test system: NGP.Luc xenograft; experiment: In vivo NIR optical imaging of NGP.Luc tumor xenografts in mice
Description: as §1, §2
Imaging of W765-BG in human tumor xenografts in mice. […] Tumor-bearing mice received an intraperitoneal injection of Luciferin to visualize the tumor cells, followed by an intravenous injection of W765-BG from the tail vein. Whole body images were collected at 24 h intervals over the course of eight days. Tumors were visualized by white light, X-ray and luciferase imaging (FIG. 2). […] When merging the optical signal of W765-BG with luciferase and anatomic X-ray images (FIG. 2E-2F), their precise overlay confirms the specificity of W765-BG.
In contrast, the NGP.Luc tumor was rather diffuse without a clear margin in the early tumor growth phase (FIG. 4G). The tumor vasculature developed better than in the NB1691.Luc tumor. […] The diffused tumor growth pattern also limited the W765-BG imaging findings in this stage (FIG. 4I). Once again, the merged images show the location of the tumor cells and the vasculature status (FIG. 4J to FIG. 4L). One week later, the tumor cells became more concentrated in one location (FIG. 4M). The vasculature surrounding the tumor node was well formed (FIG. 4N) and the TBR of the vasculature agent increased to 1.90. […] The two imaging agents were distributed differently in the body (FIG. 4P). […] Merged X-ray and W765-BG images confirmed the tumor size, location and W765-BG signal intensity (FIG. 4Q).

[3] = test system: human neuroblastoma cells (NPG.Luc cells); experiment: NIR confocal microscopy of imaging agent uptake by neuroblastoma cells; assay type: cell-based; details: 50 μmolar, incubated overnight at 37° C., ex/em 765/810 nm
Description: Cell lines. Human neuroblastoma cancer cell lines NB1691.1uc and SYFY.luc were cultured in Dulbecco's Modified Eagle's Medium supplemented with high glucose and F12 nutrient (DMEM/F12, Invitrogen, Carlsbad, Calif.) with 10% fetal bovine serum (Hyclone, Logan, Utah) in a humidified incubator maintained at 37° C. with 5% CO2.
Confocal microscope imaging. Cells were harvested from culture and incubated overnight at 37° C. with W765-BG imaging agent or NIR dye at final concentrations of 50 μmolar. Cells were washed in PBS, then incubated for 15 min at 4° C. with Sytox green (Molecular Probes) in 95% ethanol to fix the cells and stain cell nuclei. Stained cells were then transferred to a slide and mounted for microscopic examination. Images were recorded using an Olympus confocal microscope (Model: Fluorview 1000, Olympus America, Center Valley, Pa., USA). The microscope was equipped with excitation (Ex) light source and emission (Em) filters to detect and separate W765-BG or NIR dye (ex/em 765/810 nm) and cell nuclei (ex/em 488/510 nm) signals. In the microscopic images, signal intensities were recorded from one slice of 23 cell z-stacks with 0.5 micrometers gaps. Sytox green and W765-BG or NIR dye signals were pseudo colored into green (emission at 510 nm) and red (emission at 810 nm), respectively.
Imaging of W765-BG in neuroblastoma cells. To evaluate W765-BG as a potential specific molecule, its ability to uptakes by neuroblastoma cells was examined in vitro by NIR confocal microscopy. NPG.Luc cells were treated with W765-BG or free dye overnight at 37° C., after which they were washed, fixed, and visualized by confocal microscopy.
In vitro cell uptake imaging agent. Imaging agent uptake by the cells was recorded by confocal microscopy. The images show cell morphology (FIG. 3A), cell nuclei (FIG. 3B), and W765-BG uptakes by cells (FIG. 3C). […] Those results were validated by non-overlaid NIR images (FIG. 3G and FIG. 3H).

[4] = test system: NB1691.Luc xenograft; experiment: In vivo NIR optical imaging of NB1691.Luc tumor xenografts in mice; details: 7 days post inoculation, 10 nmol W765-BG, 3 nmol RGD-Cy5.5 i.v.
Description: as §1
as §2, with “The animals were imaged 1 to 9 days after the injection using the Kodak In-Vivo Multispectral System FX (Carestream Health Molecular Imaging, New Haven, Conn.).” left out, “Tumor cells, vasculature, and W765-BG signals were precisely overlaid with anatomical X-ray images.” left out
In vivo imaging. Luciferase positive tumor cell could be detected as early as 4 days after inoculation (data not show). Different tumor growth patterns were detected at 7 days post inoculation. […]

[5] = test system: neuroblastomas; details: Maris et al., 2007; cited from earlier work

Row | SMILES | whole body distribution of agent signal, late stage tumor ([1]; late stage tumor, after injection of additional imaging agent (FIG. 5B, 5C)) | distribution of agent in dissected organs ([1]; late stage tumor, dissected organ images (FIG. 5F, 5G)) | imaging window post injection ([1]; post injection) [days] | uptake by normal renal structures ([1]; retroperitoneal area, whole body images) | persistence of tumor specific optical signals once absorbed ([1]; xenograft mouse model) | tumor to background ratio ([2]; 24 hours after injection) | whole body location of NIR signal ([2]; 48 hours after administration (FIG. 2)) | tumor to background ratio ([2]; 48 hours after injection) | tumor to background ratio ([2]; 192 hours after injection) | tumor-to-background ratio (TBR) ([2]; NGP.Luc, early tumor growth phase (7 days post inoculation), 10 nmol W765-BG, 3 nmol RGD-Cy5.5 i.v.) | tumor-to-background ratio (TBR) ([2]; NGP.Luc, one week later than the early stage images) | whole body distribution of agent signal ([2]; NGP.Luc, one week later than the early stage images (FIG. 4P)) | time optical signals were retained in the tumor after injection ([2]; after which signal strength gradually diminished) | uptake of agent by neuroblastoma cells (NIR signal in cells, confocal microscopy) [3] | tumor-to-background ratio (TBR) [4] | proportion of neuroblastomas in which the agent can be selectively concentrated [5] | uptake of agent by neuroblastoma cells (NIR signal in cells, confocal microscopy) ([3]; listed as NIR dye)
1 | CC1(C)C(/C=C/C2=C(Oc3ccc(S(=O)(=O)O)cc3)C(=C/C=C3/N(CCCCCC(=O)NCC(=O)Nc4cccc(CNC(=N)N)c4)c4ccc(S(=O)(=O)O)cc4C3(C)C)/CCC2)=[N+](CCCCS(=O)(=O)O)c2ccc(S(=O)(=O)O)cc21 [Compound W765-BG, 2-(3-(IRdye800-Gly-amino)-benzyl)guanidine] | non-uniformly distributed in the tumor; also recorded: located only in the tumor region | in the tumor, liver and spleen | 8 to 9 | did not take up | longer than one week | 1.95 | detected in tumor region only | 1.98 | 1.52 | 1.08 | 2.90 and 2.8 | mainly in the tumor region | about 48 hours | detected inside the cells; also recorded: internalized into cells; also recorded: take up the W765-BG agent; also recorded: high uptake | 0.95 | – | –
2 | N=C(N)NCc1cccc([131I])c1 [MIBG, meta-iodobenzylguanidine] | – | – | – | – | – | – | – | – | – | – | – | – | – | – | – | more than 90% | –
3 | CC1(C)C(/C=C/C2=C(Oc3ccc(S(=O)(=O)O)cc3)C(=C/C=C3/N(CCCCS(=O)(=O)O)c4ccc(S(=O)(=O)[O-])cc4C3(C)C)/CCC2)=[N+](CCCCCC(=O)O)c2ccc(S(=O)(=O)O)cc21 [free dye, IRDye800CW carboxylate, reference compound] | – | – | – | – | – | – | – | – | – | – | – | – | – | almost no detectable signal | – | – | almost no detectable signal
